Earlier results in patent US4150121A, “Kinin containing injection composition” (THERA Gesellschaft fur Patentverwertung mbH, priority 1976, dated 1979).
Where a SMILES comes first, the peptide text is derived from it.

Settings: intracutaneous injection

Compound | amount causing vehement pain reactions
NC(N)=NCCC[C@H](NC(=O)[C@H](Cc1ccccc1)NC(=O)[C@@H]1CCCN1C(=O)[C@H](CO)NC(=O)[C@H](Cc1ccccc1)NC(=O)CNC(=O)[C@@H]1CCCN1C(=O)[C@@H]1CCCN1C(=O)[C@@H](N)CCCN=C(N)N)C(=O)O [Bradykinin, (NH2) arginine - proline - proline -glycine - phenylalanine - serine - proline - phenylalanine - arginine (COOH)] (H-RPPGFSPFR-OH) | about 0.1 microgram in 1 milliliter of solution
kallidin: decapeptide kinin: Brady kinin extended at the amino end by an additional lysine residue | about 0.1 microgram in 1 milliliter of solution
